Laboratory results reported in article PMC3353944, “BC4707 Is a Major Facilitator Superfamily Multidrug Resistance Transport Protein from Bacillus cereus Implicated in Fluoroquinolone Tolerance” (PLoS ONE, 2012).

Molecular target: T1, BC4707 (Bacillus cereus, UniProt Q816V8)
T1 construct: gene BC_4707; full-length with RGSHis6 tag (kept), expressed from pTTQ18 (pBC4707) in E. coli DH5alpha delta-acrAB
Test: norfloxacin accumulation assay, fluorescence of cell extracts vs empty-vector cells
Type: cell-based
Details: E. coli DH5alpha delta-acrAB, 100 uM norfloxacin, 20 mM glucose, pH 7.0; CCCP (100 uM) added at 15 min

T1 sequence (Q816V8 entry or part of it): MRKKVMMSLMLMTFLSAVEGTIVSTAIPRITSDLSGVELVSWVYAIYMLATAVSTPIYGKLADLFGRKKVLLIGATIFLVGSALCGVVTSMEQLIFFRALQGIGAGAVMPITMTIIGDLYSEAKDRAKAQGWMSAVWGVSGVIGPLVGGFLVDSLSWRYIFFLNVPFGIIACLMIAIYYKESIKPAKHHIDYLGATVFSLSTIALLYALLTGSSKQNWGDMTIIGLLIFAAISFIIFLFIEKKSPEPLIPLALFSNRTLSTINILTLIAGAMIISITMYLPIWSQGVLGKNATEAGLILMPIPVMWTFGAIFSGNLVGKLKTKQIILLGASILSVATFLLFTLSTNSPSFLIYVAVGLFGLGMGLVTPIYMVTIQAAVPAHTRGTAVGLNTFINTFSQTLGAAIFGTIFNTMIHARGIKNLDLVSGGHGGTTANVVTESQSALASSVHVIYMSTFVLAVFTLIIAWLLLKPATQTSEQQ

CCn1cc(C(=O)O)c(=O)c2cc(F)c(N3CCNCC3)cc21 [norfloxacin]
norfloxacin accumulation assay, fluorescence of cell extracts vs empty-vector ce: indicating that the presence of BC4707-RGSHis6 prevents accumulation of norfloxacin in the cells
